Assay results published in patent US9428536B2, “Immunostimulatory G, U-containing oligoribonucleotides” (Zoetis Belgium SA, priority 2002, dated 2016).

Assays:
[1] = system: human PBMC; experiment: Human PBMC IL-12 p40 secretion, ELISA; format: cell-based; settings: for IL-12 p40 response of human PBMC (in words): Example 1, FIG. 1, 16 hours, RNA 50 μg/ml with and without DOTAP, R-848 2 μg/ml, LPS 1 μg/ml, Pam3Cys 5 μg/ml, poly IC 50 μg/ml; for effect of DOTAP on the amount of IL-12 p40 secreted: Example 4, FIG. 5, presence versus absence of DOTAP, 16 hour incubation
Protocol: Human peripheral blood mononuclear cells (PBMCs) were isolated from healthy donors, plated at 3×10^5 cells/well, stimulated in vitro with various test and control immunostimulatory agents for 16 hours, and then analyzed by enzyme-linked immunosorbent assay (ELISA) using matched antibody pairs from BD-Pharmingen for secreted cytokines IL-12 p40 and TNF-α, performed according to the manufacturer's protocol. Also included were certain negative controls, including medium alone and DOTAP (10 μg/200 μl culture well; “Liposomes”) alone. The control immunostimulatory agents included the imidazoquinolone R-848 (2 μg/ml), lipopolysaccharide (LPS; 1 μg/ml), Pam3Cys (5 μg/ml), poly IC (50 μg/ml), and CpG DNA (50 μg/ml). These are reported ligands for TLR7, TLR4, TLR2, TLR3, and TLR9, respectively. Test immunostimulatory agents included the following RNA molecules, each at 50 μg/ml, with and without DOTAP (10 μg total “with Liposomes” and “without Liposomes”, respectively): GUGUUUAC alone; GUAGGCAC alone; GUGUUUAC in combination with GUAGGCAC; GUAGGA; GAAGGCAC; CUAGGCAC; CUCGGCAC; and CCCCCCCC. These RNA oligonucleotides each contained a phosphorothioate linkage between the penultimate and 3′ terminal nucleoside.
The experiments described in the preceding example were repeated with varied concentrations of RNA oligonucleotides in order to assess the dose-response behavior of human PBMCs to G,U-containing RNA oligonucleotides of the invention. A total of 10, 3 or 1 μg RNA was added to 10 μg DOTAP and then added to the 200 μl culture wells. After 16 hours IL-12 p40 and TNF-α ELISAs were performed as described in Example 1. […]
RNA oligomers GUGUGUGU, GUGUGUG, GUGUGU, GUGUG, GUGU, GUG, and GU, with and without DOTAP, were added over a range of concentrations to overnight cultures of human PBMC. Culture supernatants were harvested, and human TNF-α, IL-12 p40, and IFN-α were measured by ELISA using matched antibody pairs from BD-Pharmingen according to the manufacturer's protocol. […]

[2] = system: wild type murine macrophages; experiment: Wild type murine macrophages in the presence of IFN-γ, IL-12 p40 ELISA; format: cell-based, mouse; settings: FIG. 6 Panel A, 12 hours, RNA with DOTAP
Protocol: The following murine cells were isolated and incubated with various RNAs and other known TLR ligands in order to assess species-, cell type-, and signaling pathway-specificity: wild type macrophages in the presence of IFN-γ; MyD88-deficient macrophages in the presence of IFN-γ; J774 (mouse macrophage cell line); and RAW 264.7 (mouse macrophage cell line, e.g., ATCC TIB-71). Murine bone macrophages were generated from wild type or MyD88-deficient C57BL/6 mice by culturing bone marrow cells with 50 ng/ml M-CSF for 5 days. Cells were seeded at 25,000 cells/well and treated with 20 ng/ml IFN-γ for 16 hours. The murine macrophage cell lines RAW and J774 were seeded at 10,000 cells/well.
The following test and control agents were examined: R-848 (2 μg/ml), ODN 1668 (CpG DNA; 5′-[…]-3′; SEQ ID NO:7); LPS (1 μg/ml); poly IC (50 μg/ml); Pam3Cys (5 μg/ml); Ionomycin/TPA; the following RNA molecules, each with (“+Lipo”) and without DOTAP (10 μg/200 μl culture well): GUGUUUAC alone (RNA1); GUAGGCAC alone (RNA2); GUGUUUAC in combination with GUAGGCAC (RNA1/2); […] (RNA6; SEQ ID NO:8); […] (RNA9; SEQ ID NO:9); and the following DNA molecules, corresponding to RNA1, RNA2, and RNA1/2: GTGTTTAC alone (DNA1); GTAGGCAC alone (DNA2); and GTGTTTAC in combination with GTAGGCAC (DNA1/2). These RNA and DNA oligonucleotides each contained a phosphorothioate linkage between the penultimate and 3′ terminal nucleoside. RNA6 and RNA9 each contained in addition a phosphorothioate linkage between the penultimate and 5′ terminal nucleoside. RNA6 corresponds to a ribosomal RNA stem loop derived from Listeria monocytogenes. RNA9 corresponds to a stem loop derived from human immunodeficiency virus (HIV, an RNA retrovirus). The cells were cultured for 12 hours and supernatants were harvested. Murine IL-12 p40, IL-6, and TNF-α were measured by ELISA using matched antibody pairs from BD-Pharmingen according to the manufacturer's protocol.

With “lipopolysaccharide [LPS, reference compound]” the “IL-12 p40 response of human PBMC (in words)” value (“IL-12 p40 response” below) [1] was “responsive”, the “effect of DOTAP on the amount of IL-12 p40 secreted” value (“effect of DOTAP” below) [1] was “reduced immunostimultory effect” and the “IL-12 p40 secretion by wild type murine macrophages” value (shortened to “IL-12 p40 secretion”) [2] was “significant amounts”.

For “5′-TCCATGACGTTCCTGATGCT-3′ (CpG DNA, linkage chemistry not given here, further chemistry not given here) [ODN 1668]”, the “IL-12 p40 secretion” value [2] was “significant amounts”.

poly IC [reference compound] was tested, and the “IL-12 p40 response” value [1] was “responsive”, the “effect of DOTAP” value [1] was “reduced immunostimultory effect” and the “IL-12 p40 secretion” value [2] was “significant amounts”.

For `CCCCCCCCCCCCCCCC(=O)N[C@@H](CSC[C@@H](COC(=O)CCCCCCCCCCCCCCC)OC(=O)CCCCCCCCCCCCCCC)C(=O)O` [Pam3Cys, reference compound], the “IL-12 p40 response” value [1] was “responsive”, the “effect of DOTAP” value [1] was “about the same immunostimultory effect” and the “IL-12 p40 secretion” value [2] was “significant amounts”.
